Tests used:
[1] = system: OSN subtypes (odorant receptors, ORs); assay: Act-Seq: scSeq of olfactory epithelium after two-hour odor exposure (IEG expression, activated ORs, activation score); assay type: in vivo, mouse
Procedure: Act-Seq (Wu et al., 2017) was performed following odor exposure to quantify odor-evoked responses in each OSN subtype (defined by their expressed OR) across the entire OR repertoire. Mice were habituated to a reversed light cycle for at least for 1 week before odor exposure, transferred to a new disposable cage with regular bedding/food and kept overnight in a satellite animal facility. On the experimental day, each mouse was first transferred to a new empty disposable cage during the dark cycle and habituated for 20 minutes. Empty cages were used to avoid any activation by odorants present within the environments in which the mice were housed. Odors were added to a piece of filter paper (100 μL of odorant) in a 35 mm petri dish and a cotton ball (200 μL of odorant) and placed in each cage. After 2 hours, mice were euthanized, and dissociation was performed as described below. Odors used in this study were as follows. Dipropylene glycol (DPG, control solvent), and 10% of acetophenone, octanal, 2-hydroxy acetophenone, 4-methyl acetophenone, and methyl salicylate. As a control, mice were exposed to DPG alone for 30 min. This control condition was used to account for any drift in transcriptomes during the overnight housing and habituation periods prior to odor exposure and designed to capture the transcriptome in the state it would have been in the odor-exposed animals prior to odor exposure. […] Act-Seq was also performed using lower concentrations of acetophenone (1.0, 0.1, 0.01%) and 2-hydroxy acetophenone (0.1%, 0.01%). All odor dilutions were made with DPG, and all odors and DPG were obtained from Sigma. To assess the persistence of any transcriptional changes observed as a result of odor exposure, a cohort of mice was exposed to acetophenone or DPG for 2 hours, transferred to new clean regular home cages, and subjected to scSeq after an additional 22 hours.
The main olfactory epithelium was dissected in Earle's Balanced Salt Solution (EBSS, pre-treated with carbogen for at least 5 minutes before each use, Worthington), then transferred to a round-bottomed glass dish containing 750 μL of papain solution (one vial of Papain (Worthington) dissolved in 5 mL of EBSS and then equilibrated 10 minutes at 37° C.) and 100 μL of DNase solution (one vial of DNase-I (Worthington) dissolved in 500 μL of EBSS). Bone was removed from the epithelium under a dissecting microscope and the resulting epithelial tissue was placed in a 5 mL tube (Becton Dickinson) with an additional 1.75 mL of Papain solution and 200 μL of DNase-I solution and rocked gently for-60 minutes at 37° C. The tissue was then gently triturated with a 5 mL pipette 10-15 times, passed through a 40 μm cell strainer (Becton Dickinson), and washed with 1 mL of Hibernate-A medium containing 10% Fetal Bovine Serum (FBS. GIBCO). Filtered cells were transferred to a new 5 mL tube and centrifuged 5 minutes at 300×g. The supernatant was decanted, the cells were washed once with 4 mL Hibernate-A containing 10% FBS and resuspended in 1 mL Hibernate-A containing 0.2% FBS. Importantly, each of the solutions above contained transcriptional inhibitors (5 μg/mL of Actinomycin D, 10 μg/mL of Anisomycin and 10 μM of Triptolide, all obtained from Sigma) for all experiments, especially the Act-Seq experiments, except where noted.
OSN subtypes that were responsive to odorants were identified via a two-step process. First, individual OSNs (as defined by the expressed OR) were determined as activated based on their mean z-scored immediate early genes (IEG) expression. A set of 10 IEGs were used (Btg2, Egr1, Fos, Fosb, Gm13889, Junb, Nr4a1, Nr4a2, Pcdh10, and Srxn1). […] The set of 10 IEGs was used since even though all of the IEGs were specific to acute activation by odors, they were still only detected in a minority of cells due to the sparse nature of scSeq. […]

[2] = system: acetophenone-responsive OSN subtypes; assay: Transient naris occlusion followed by Act-Seq; assay type: in vivo, mouse; details: 10% acetophenone, 2 hours after unplugging
Procedure: Because odor responses in occluded OSNs cannot be examined in the chronic occlusion experiment due to permanent cautery, transient unilateral naris occlusion was performed using removable nasal plugs. Adult mice (6-12 weeks old) were anesthetized by isoflurane and removal nasal plugs were inserted into one of the two nostrils, as previously described (Galliano et al., 2021; Kass et al., 2012). The occlusion was confirmed by measuring airflow from the occluded nostril via thermocouple. After 5 days, a subset of mice was used for scSeq experiment directly (control mice) to assess the effects of naris occlusion on changes in gene expression. Under brief anesthesia by isoflurane, the remaining mice were unplugged and transferred to a new empty disposable cage containing either DPG alone or 10% acetophenone. After 2 hours, mice were subjected to scSeq. Each of the two nostrils was used separately in both control (open and plugged) and odor-exposed mice (open and unplugged).

[3] = system: acetophenone-responsive OSN subtypes; assay: Environment switch followed by Act-Seq; assay type: in vivo, mouse; details: 2 weeks after switch from home cage to new odor environment
Procedure: To examine environment-dependent changes in gene expression and their effects on odor-evoked responses. Act-Seq was performed 2 weeks after environment switches. Adult mice (6-12 weeks old) were group-housed in the regular home-cage environment for at least one week before the transfer to their novel environments. Individual mice were transferred to a new disposable cage containing materials for a novel environment in the satellite animal facility. Two different novel environments were used, with each containing non-overlapping contents; Environment A (paper bedding, hay, dried flowers (such as marigold), peanuts, seeds (e.g., sunflower seeds, pumpkin seeds), puffed rice), and Environment B (garden soil, aspen shavings, coconut husks, dried fruits (e.g., berries, mango, pineapple), dried vegetables (e.g., green peas, corn, bell peppers), millet, fresh fruits (banana, apple, peach), corn flakes). Mice were singly-housed throughout the entire 2 weeks and were transferred to newly prepared environmental cages every 12 hours to minimize the contributions of any murine odors, which are likely the predominant odorants present within standard home-cage housing environments. After 2 weeks, individual mice were transferred to new empty disposable cages, and Act-Seq using acetophenone was performed as above.

Olfr923 = details: Hu et al. 2020; Jiang et al. 2015; cited from earlier work
[4] = acetophenone concentration series 0.01-10%

activation scores of acetophenone-responsive OSNs with increasing concentrations [1, 4]: tonically increased | number of ORs activated with increasing concentrations [1, 4]: tonically increased | z-scored expression of 10 immediate early genes (IEGs) for each OSN subtype, odor vs control ([1]; odor vs control (DPG) conditions): higher in the odor conditions | activation scores of acetophenone receptor-expressing OSNs from occluded (unplugged) vs open nostrils [2]: higher activation scores
SMILES: CC(=O)c1ccccc1 [acetophenone]
percent of cells activated per OR on average, 5 partially activated ORs identified only by phospho-S6 ([1]; Act-Seq, ORs identified as acetophenone receptors): 43.8% | overlap between ORs activated by ACE and OCT, odds ratio ([1]; Fisher's exact test, overlap at chance levels): 1.42 | acetophenone-driven OSN activation scores across odor environments [3]: altered acetophenone-driven OSN activation scores in an environment-dependent manner | affinity for Olfr923 (Olfr923): high affinity

Source: patent US20250043349A1, “DEORPHANIZING ODORS USING SINGLE CELL SEQUENCING” (PRESIDENT AND FELLOWS OF HARVARD COLLEGE, priority 2021, published 2025)
